According to patent US20250026741A1, “INHIBITORS OF THE ONCOGENIC SHP2 PHOSPHATASE AND USES THEREOF” (Sanford Burnham Prebys Medical Discovery Institute, priority 2021, published 2025):

How the values were obtained:
[1] = target: PTP1B catalytic domain (Homo sapiens (Human), UniProt P18031); assay: DiFMUP phosphatase inhibition assay, PTP1B; type: biochemical; conditions: for IC50: catalytic domain, DiFMUP at Km (25 μM); for fold selectivity for SHP2 over PTP1B: from IC50 values against catalytic domains
Experimental: Selectivity is one of the biggest challenges in PTP inhibitor development. […] Similar to SHP2, we adapted a 384-well plate format DiFMUP assay for recombinant PTP1B and STEP and performed Michaelis-Menten experiments to determine DiFMUP Km values for each phosphatase. IC50 values of our inhibitors for PTP1B and STEP were determined in 10-point dose-response assays with DiFMUP used at the concentration corresponding to the respective Km value. […] Other inhibitors with good relative selectivity for SHP2 included #02 (13-fold selective over PTP1B; 73-fold selective over STEP) and #05 (5-fold selective over PTP1B; >71-fold selective over STEP).
SHP2 inhibitors were tested at room temperature (RT) in a 384-well plate format standard phosphatase fluorescence intensity assay using DiFMUP (Invitrogen/Thermo Fisher Scientific, Carlsbad, CA) as a substrate and a total reaction volume of 25 μL. SHP2 inhibitors or vehicle (DMSO) were spotted in triplicate into a black Greiner FLUOTRAC™ 200 384-well microplate (#781076, Greiner) for a 10-point dose-response assay using an Echo®555 Liquid Handler (Labcyte, Inc., San Jose, CA). PTP working solutions were prepared at a 0.625 nM concentration (for a final concentration of 0.5 nM) in buffer containing 50 mM Bis-Tris pH 6.0, 50 mM NaCl, 5 mM DTT, and 0.01% Tween® 20. Prior to the assay, a dually phosphorylated insulin receptor substrate 1 (IRS-1) peptide [625 nM (500 nMfinal) (30)] was added to full-length WT SHP2 working solutions and incubated for 20 min. DiFMUP working solutions at 5× final concentration were prepared in 50 mM Bis-Tris pH 6.0, 50 mMNaCl, and 0.01% Tween 20. 20 μL of PTP working solution was dispensed into the microplate and incubated with inhibitor for 20 min at RT. […] The reaction was initiated by addition of 5 μL DiFMUP working solutions. Fluorescence intensity was measured in kinetic mode (every minute for 7 or 10 min) using a Tecan Spark® Multimode Microplate Reader (Tecan, Groedig, Austria) with an excitation wavelength of 360 nm and an emission wavelength of 460 nm. The initial rates were determined from the linear progression curves of the PTP reaction. The nonenzymatic hydrolysis of the substrate was corrected by using a control without addition of enzyme. IC50 values were calculated from the corrected initial rates by nonlinear regression using the program GraphPad Prism (GraphPad Software, Inc., San Diego, CA) Version 8. Dose-response inhibition assays of SHP2cat using the substrate OMFP were performed similarly as described above for DiFMUP. OMFP was used at a concentration corresponding to its Km value for SHP2cat (50 μM final). Fluorescence intensity was measured in kinetic mode (every minute for 10 min) using a Tecan Spark Multimode Microplate Reader with an excitation wavelength of 485 nm and an emission wavelength of 535 nm. Initial rates were determined and IC50 vales calculated as described above.

[2] = system: Kasumi-1 acute myeloid leukemia (AML) cells; assay: Cell viability assay (CellTiter-Glo), Kasumi-1; type: cell-based; conditions: Kasumi-1 cells, various concentrations, 3 d
From the text: (§1) Inhibition of SHP2 has been reported to inhibit the growth of cancer cells including Kasumi-1 acute myeloid leukemia (AML) and KYSE-520 esophageal cancer cells. […] Cell viability is shown as a percentage of the vehicle (DMSO) control and represents the mean±SD. B) #02 dose-response curves in cell viability assays using Kasumi-1, KYSE-520, MOLM-13, and […] cells after 3 d in culture. The percentages compared to DMSO vehicle control were curve fitted using nonlinear regression (log[inhibitor] vs. normalized response, variable slope) and represent the mean±SD. C) Cell viability of […] and MDA-MB-468 triple-negative breast cancer (TNBC) cells in the presence of various concentrations of #02 or the SHP2 allosteric inhibitor SHP099 after 5 d in culture. Cell viability is shown as a percentage of DMSO vehicle control, representing mean±SD, and curve fitted as in B). D) Colony formation assay (11 d) of […] and MDA-MB-468 TNBC cells in the presence of various concentrations of #02 or the SHP2 allosteric inhibitor SHP099. E) Phospho-ERK1/2 (p-ERK1/2) immunoblot analysis from total cell lysates of MOLM-13 AML cells treated with #02 at the indicated concentrations, or with SHP2 allosteric inhibitor RMC-4550 (RMC, 1 μM) for 3 h or 24 h. The quantitation of p-ERK1/2 levels is shown as the percentage of the DMSO (vehicle) control and represents data from three independent experiments (mean±SD). F) Viability of AML patient-derived cells in the presence of 10 μM #02 or 10 μM SHP2 allosteric inhibitor RMC-4550 after 2 d, 4 d, or 6 d in culture. Cell viability is shown as a percentage of the DMSO vehicle control and represents the mean±SD (*p<0.05; **p<0.01; ****p<0.0001; unpaired test with Welch's correction) G) Viability of MOLM-13 cells and MOLM-13-Cas9-mCherry cells with SHP2 knockout (KO) in the presence of #01, #02, and allosteric inhibitor SHP099 at various concentrations (10-point dose-response). The percentages compared to the DMSO vehicle control were curve fitted using nonlinear regression (log[inhibitor] vs. normalized response, variable slope) and represent the mean±SD. SHP2 protein levels in regular MOLM-13 cells (WT), MOLM-13-Cas9-mCherry cells (Cas9), and MOLM-13-Cas9-mCherry cells with SHP2 KO (SHP2 KO) were evaluated by immunoblot analysis using SHP2 antibodies.
(§2) Viability of AML, esophageal carcinoma, and TF-1 cells was assessed using the ATP-depletion assay CellTiter-Glo® (Promega). Cells were harvested at 1×10^6/mL to 2×10^6 cells/mL with cell numbers determined by trypan blue using the Countess Cell counter (Thermo Scientific) and resuspended in culture media. […] Luminescence was read on a Tecan Spark® Multimode Microplate Reader and data analyzed using Graph Pad Prism software.

[3] = system: KYSE-520 esophageal cancer cells; assay: Cell viability assay (CellTiter-Glo), KYSE-520; type: cell-based; conditions: KYSE-520 cells, various concentrations, 3 d
From the text: as §1, §2

Sequence of PTP1B catalytic domain (P18031 1-300): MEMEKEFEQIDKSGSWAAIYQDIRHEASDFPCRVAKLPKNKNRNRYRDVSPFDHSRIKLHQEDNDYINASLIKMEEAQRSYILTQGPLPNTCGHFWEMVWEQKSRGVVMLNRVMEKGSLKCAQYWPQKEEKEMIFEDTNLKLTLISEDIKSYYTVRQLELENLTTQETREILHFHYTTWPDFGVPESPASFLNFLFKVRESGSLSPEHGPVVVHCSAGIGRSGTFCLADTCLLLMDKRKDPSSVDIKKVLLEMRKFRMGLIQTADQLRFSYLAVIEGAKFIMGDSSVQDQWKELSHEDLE

SMILES	IC50 [1]	fold selectivity for SHP2 over PTP1B [1]	effect on cancer cell growth [2]	effect on cancer cell growth [3]
Nc1ccc(NC(=O)c2cc(-c3ccc(/C=C4\Sc5ccccc5C4=O)o3)ccc2O)cc1 [#01, (Z)—N-(4-Aminophenyl)-2-hydroxy-5-(5-((3-oxobenzo[b]thiophen-2(3H)-ylidene)methyl)furan-2-yl)benzamide]	6.8 µM	31 fold	dose-dependently inhibited cancer cell growth	dose-dependently inhibited cancer cell growth
O=C(Nc1ccccc1)c1cc(-c2ccc(/C=C3\Sc4ccccc4C3=O)o2)ccc1O [#02, (Z)-2-hydroxy-5-(5-((3-oxobenzo[b]thiophen-2(3H)-ylidene)methyl)furan-2-yl)-N-phenylbenzamide]	9.4 µM	13 fold	dose-dependently inhibited cancer cell growth	dose-dependently inhibited cancer cell growth
N#Cc1cc(-c2ccc(/C=C3\Sc4ccccc4C3=O)o2)ccc1O [#05, (Z)-2-Hydroxy-5-(5-((3-oxobenzo[b]thiophen-2(3H)-ylidene)methyl)furan-2-yl)benzonitrile]	7.4 µM	5 fold	dose-dependently inhibited cancer cell growth	dose-dependently inhibited cancer cell growth
